The results in this text go back to paper PMC8379256, “A xanthene derivative, DS20060511, attenuates glucose intolerance by inducing skeletal muscle-specific GLUT4 translocation in mice” (Communications Biology, 2021).

Several values for one entry are separate records, joined by “and”; a condition that tells them apart may be missing. Equal values may be shown once. Read-outs that look alike come from different tables or passages of the source.

The nature of data set [1]: Tissue concentrations 75 min after oral administration. It counts as in vivo, mouse. As to conditions: for concentration at 75 min: 30 mg/kg, 30 mg/kg oral, individual mice. As for the experimental part: C57BL/6 mice that had been denied access to food overnight received the indicated oral dose of DS20060511, and blood samples were collected from the tail vein at the indicated timepoints. Plasma samples for quantitation of DS20060511 were prepared by centrifugation. Another group of mice received oral administration DS20060511 (30 mg kg^−1) and euthanized 75 min later. The soleus and gastrocnemius muscles, heart, and inguinal WAT were removed and homogenized in water (5 vol.) for quantitation of the drug concentrations. Plasma samples and tissue homogenates were analyzed by LC-MS/MS (Nexera MP System, SHIMADZU, Kyoto, Japan; API4000 System, SCIEX, Framingham, MA). The tissue concentrations of the compound were calculated by assuming the volume of 1 g of tissue is 1 mL. Evaluation of the metabolic stability of the compound to mouse and human cytochrome P450 (CYP) was conducted as follows. The test compound (1 μM) was incubated with pooled liver microsomes (0.1 mg mL^−1) in sodium phosphate buffer (100 mM, pH 7.4) at 37 °C with an NADPH generating system: β-nicotinamide adenine dinucleotide phosphate (β-NADP) 1 mM, D-glucose 6-phosphate (G-6-P) 10 mM, glucose 6-phosphate dehydrogenase (G-6-PDH) 1 U mL^−1, and magnesium chloride 3.3 mM. After 30 min incubation, the reaction was terminated by addition of acetonitrile and samples were analyzed by LC-MS/MS. The results were expressed as the amount of compound remaining (expressed as a percentage), based on the ratio of the relative area to that in the control (without reaction).

Data set [2] relates to IRβ, IRS1, Akt (Ser473), AS160. Nature of the data set: Phosphorylation of IRβ, IRS1, Akt and AS160 in triceps surae muscle (immunoblot). It counts as in vivo, mouse. As to conditions: skeletal muscle, DS20060511 10 mg kg−1 or insulin 5 U kg−1; for phosphorylation of IRβ-subunit and IRS1: Fig. 4a; for phosphorylation of Akt and AS160: Fig. 4b. As to the method:
The tissue sample was homogenized with a Polytron homogenizer and lysed in a lysis buffer (25 mM Tris-HCl, pH 7.4, 100 mM NaF, 50 mM Na4P2O7, 10 mM EGTA, 10 mM EDTA, 10 mM Na3VO4, 1 mM PMSF, and 1% NP-40) on ice, and the lysate was centrifuged at 17,860 × g for 10 min at 4 °C. The supernatant was collected and the protein concentrations were determined by BCA assay (Thermo Fisher Scientific). Immunoprecipitation of IRβ and IRS1 was performed as described previously, using specific antibodies against IRβ (sc-711, Santa Cruz Biotechnology, Dallas, TX), IRS1 (06-248, Merck Millipore, Burlington, MA), and for detection of phosphotyrosine (05-321, Merck Millipore). Five milligrams of the extracts were incubated with specific antibodies against IRS1 for 1 h at 4 °C. Then, protein G-Sepharose was added, followed by incubation for 2 h at 4 °C. After washing three times, the immunocomplexes were subjected to immunoblotting.
Phosphorylated or total protein of IRβ and IRS1 was resolved on 7% SDS-PAGE and analyzed using specific antibodies against IRβ, IRS1, and phosphotyrosine. Analyses were also conducted for phosphorylated Akt (1:2000), Akt (1:2,000), AS160 (1:1,000), phospho-AS160 (1:1,000), AMPKα (1:1,000), phospho-AMPKα (1:1,000), GLUT4 (1:200), Na,K-ATPaseα (1:1,000), GAPDH (1:1,000) by immunoblotting with specific antibodies after the tissue lysates were resolved on SDS-PAGE and transferred to a PVDF membrane using Trans-Blot Turbo transfer system (Bio-Rad Laboratories, Hercules, CA). Bound antibodies were detected with HRP-conjugated secondary antibodies using ECL detection reagents (GE Healthcare, Chicago, IL).
(In general: A western blot detects proteins with antibodies after separation by electrophoresis.)

For a further data set, the system named is AMPK. Description: AMPK (Thr172) phosphorylation in isolated muscles with or without electrical stimulation. Also noted: species or system mouse. As to conditions: isolated skeletal muscle; 10 μM DS20060511; Fig. 6b.

For `COc1ccc2c(C)c(C(=O)O)ccc2c1C1C2=C(CC(C)(C)CC2=O)OC2=C1C(=O)CC(C)(C)C2` [DS20060511], the concentration at 75 min was 8 µM in data set [1] (C57BL/6, mouse, gastrocnemius muscle, po, Gastro. muscle, read-out: Conc. (µM) Gastro.); 21.3 µM in data set [1] (C57BL/6, mouse, heart, po, heart, read-out: Conc. (µM) Heart); 6.8 µM in data set [1] (C57BL/6, mouse, inguinal WAT, po, WAT, read-out: Conc. (µM) WAT); 10.8 µM in data set [1] (C57BL/6, mouse, soleus muscle, po, soleus, read-out: Conc. (µM) Soleus); 9.3 µM and 7.1 µM and 8.8 µM in data set [1] (Gastro. muscle, read-out: Conc. (µM) Gastro.); 5.9 µM and 5.0 µM and 4.1 µM in data set [1] (WAT, read-out: Conc. (µM) WAT). Further, the concentration at 75 min in data set [1] (heart, read-out: Conc. (µM) Heart) was 21.0 µM and 19.6 µM and 18.0 µM; in data set [1] (soleus, read-out: Conc. (µM) Soleus), 13.8 µM and 9.8 µM and 11.1 µM. Moreover, in data set [1] (skeletal muscle, WAT, heart, 75 min after oral 30 mg kg−1), the “concentrations in tissues (in words)” value was “almost comparable concentrations among the skeletal muscle, WAT, and heart”. Moreover, the “phosphorylation of IRβ-subunit and IRS1” value in data set [2] is “no such phosphorylation of these proteins was observed”. Moreover, the “phosphorylation of Akt and AS160” value in data set [2] is “no such effect”. For the same compound, the AMPK phosphorylation level result with AMPK is reported as “no such change was observed”.

As for “Insulin: Insulin (Humulin, Eli Lilly) in the in vivo experiments; Insulin solution human (I9278, Sigma–Aldrich) in the in vitro experiments”, in data set [2], the “phosphorylation of IRβ-subunit and IRS1” value is recorded as “phosphorylated”; the “phosphorylation of Akt and AS160” value was “induced phosphorylation of Akt and AS160”.
